Measurements published in patent US20100167397A1, “ENDOCRINE CELL LINES AND METHOD OF USING THE SAME” (KYOWA HAKKO KOGYO CO., LTD., priority 2002, published 2010).
Values belong to the molecule of their own block, whether it stands above or below them. No end group written: not given here.

Tests used:
GPR43 = target: T1, GPR43 (Homo sapiens, UniProt O15552); assay: Screening ligands or agonists of GPR43 (pAGal9-GPR43 in GBCRC6, Renilla luciferase); type: cell-based; conditions: 100 μmol/L; 6 hours
T1 construct: expressed in transfected cells; host or cells: GBCRC6 (Namalwa KJM-1 derived, co-expressing Gαs-q and Gαs-i)
T1 sequence (O15552 1-330): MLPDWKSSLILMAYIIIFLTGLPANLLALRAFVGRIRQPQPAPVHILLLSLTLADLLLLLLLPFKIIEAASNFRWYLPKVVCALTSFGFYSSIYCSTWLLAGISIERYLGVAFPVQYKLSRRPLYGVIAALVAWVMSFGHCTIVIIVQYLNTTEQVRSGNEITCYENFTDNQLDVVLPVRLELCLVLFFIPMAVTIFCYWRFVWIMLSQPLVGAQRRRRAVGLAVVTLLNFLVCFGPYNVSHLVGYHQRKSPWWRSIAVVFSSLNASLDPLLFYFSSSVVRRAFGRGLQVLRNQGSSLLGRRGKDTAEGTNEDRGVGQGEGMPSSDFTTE
Procedure: According to the method mentioned in (1) of Example 20, the GPR43 gene was prepared by PCR and the gene was inserted in an expression vector pAGal9-d to construct pAGal9-GPR43 which is an inducible expression plasmid of GPR43. With regard to a template, human chromosomal DNA (100 ng; manufactured by Clontech) was used. With regard to the GPR43 gene-specific primers, synthetic DNA having sequences mentioned in SEQ ID NOS: 181 and 182, respectively, were used. A HindIII site and a NotI site were introduced to the above primers, respectively.
PCR-amplified fragment was cleaved with HindIII and NotI to prepare a HindIII-NotI fragment. A plasmid pAGal9-d was cleaved with HindIII and NotI to prepare a HindIII-NotI fragment.
According to the method mentioned in (1) of Example 21, pAGal9-GPR43 was transfected to GBCRC6 to prepare stable transformants.

CRE reporter in KJMGER8 = assay: Constitutive activity of GPCR, Method 5 (KJMGER8 co-transfected with pACREpluc, firefly luciferase); type: cell-based, human; conditions: 17β-estradiol 10 nmol/L, 1 day, activity with divided by activity without, control plasmid about 1
Procedure: After the cultivation, firefly luciferase activity was measured. […] It is judged that the higher the induction ratio of the cells to which a GPCR expression plasmid was transfected, the stronger the constitutive activity of the GPCR.

gene expression via CRE = assay: CRE-luciferase reporter stimulation in Namalwa KJM-1 / KJMGER8 cells carrying pACREpluc or pACRERluc; type: cell-based, human
Procedure: A reporter plasmid pACREpluc was dissolved in a TE buffer so as to make 1 μg/μl and the plasmid was transfected to Namalwa KJM-1 cells by an electroporation method [Cytotechnology, 3, 133 (1990)] using 4 μg to 6×10^6 cells to give transformants.
The transformants were subcultured in RPMI 1640-ITPSG medium containing hygromycin B (300 μg/ml).
In order to confirm whether gene expression via CRE took place, the transformants were stimulated under the following condition using 5′-N-ethylcarboxamide adenosine (NECA: manufactured by Sigma) which is an agonist of type 2a adenosine receptor (A2a), forskolin (manufactured by Sigma) which is an activator for adenylate cyclase or A23187 (manufactured by Research Biochemicals International) which is a calcium ionophore.
Thus, the above stable transformants were dispensed in an amount of 1×10^5 cells per well of a 48-well plate, then NECA (final concentration 100 nmol/L), forskolin (final concentration 100 μmol/L) or A23187 (final concentration 10 μmol/L) was added and stimulation was conducted by incubating in a CO2 incubator for 5 hours.
Accordingly, when the cells are stimulated by any substance, it is believed to be preferred to measure the activity after 6 hours from the stimulation.
After the incubation, firefly luciferase activity in each well was measured using the method mentioned in (4) of Example 18. With regard to a device for the measurement, Micro Lumat LB96P (manufactured by Berthold) was used. Seventeen clones having high activity were selected.
The 17 clones were used, stimulation with NECA was applied by the same manner as in the above (2), comparison with the case where no stimulation with NECA was conducted and 8 clones where luciferase activity rose to an extent of 60-fold or more were selected. Such 8 clones were named GBC1 to GBC8 respectively.
After that, coelenterazine h (Molecular Probes) (final concentration 250 nmol/L) was added to measure the activity of Renilla reniformis luciferase. For the measurement of the activity, a Wallac 1420 ARVOsx Multilable Counter (manufactured by Wallac Berthold Japan) was used. Nine clones having high activity were selected. The 9 clones were named GBCR1 to GBCR9, respectively.
With regard to the 9 clones, stimulation with NECA was conducted and, as compared with the case no stimulation with NECA was done, 2 clones where the activity of Renilla reniformis luciferase increased to an extent of not less than 18-fold were selected. The 2 clones were named GBCR1 and GBCR2, respectively.

GPR41 = target: T2, GPR41 (Homo sapiens, UniProt O14843); assay: Screening of ligands or agonists of GPR41 (pAGal9-GPR41 in GBCRC6, Renilla luciferase); type: cell-based; conditions: for induction ratio of the reporters (agonist for GPR41): 100 μmol/L, 6 hours
T2 construct: expressed in transfected cells; host or cells: GBCRC6 (Namalwa KJM-1 derived)
T2 sequence (O14843 1-346): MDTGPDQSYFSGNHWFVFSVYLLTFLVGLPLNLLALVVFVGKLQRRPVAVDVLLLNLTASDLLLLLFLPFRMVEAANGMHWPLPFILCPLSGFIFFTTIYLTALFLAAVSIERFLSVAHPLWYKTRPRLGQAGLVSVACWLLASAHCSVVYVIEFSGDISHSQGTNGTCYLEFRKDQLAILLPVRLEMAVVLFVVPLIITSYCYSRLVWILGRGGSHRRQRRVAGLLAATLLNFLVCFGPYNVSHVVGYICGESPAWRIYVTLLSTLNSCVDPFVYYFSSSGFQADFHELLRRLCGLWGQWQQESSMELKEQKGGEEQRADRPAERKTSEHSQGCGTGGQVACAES
Procedure: With regard to a template, human chromosomal DNA (100 ng; manufactured by Clontech) was used. With regard to the GPR41 gene-specific primers, synthetic DNAs having sequences mentioned in SEQ ID NOS: 183 and 184, respectively, were used. To the above primers, a HindIII site and a NotI site were introduced, respectively. A PCR-amplified fragment was cleaved with HindIII and NotI to prepare a HindIII-NotI fragment. A plasmid […] was cleaved with HindIII and NotI to prepare a HindIII-NotI fragment. The HindIII-NotI fragment derived from PCR fragment and the HindIII-NotI fragment derived from […] were ligated to construct pAGal9-GPR41 which was an inducible expression plasmid of GPR41.

GPR12 = assay: Host clone selection: inducible expression of GPR12 (pAGal9-GPR12) by 17β-estradiol, CRE-luciferase readout; type: cell-based; conditions: 24 hours; for rising rate of luciferase activity upon addition of 17β-estradiol: 10 nmol/L, firefly luciferase
Procedure: To the 8 clones was transfected pAGal9-GPR12 [a plasmid for inducible expression of GPR12 which is a constitutively activated G-protein coupled receptor: refer to Example 22 which will be mentioned later] by the above electroporation method using 4 μg to 6×10^6 cells to prepare transformants.
pAGal9-GPR12 was transfected to the 2 clones to prepare stable transformants.

[1] = target: T3, melanocortin receptor type 1 (MC1R) (Homo sapiens, UniProt Q01726); assay: MC1R reporter assay in GBCR2 (pAGal9-MC1R), Renilla reniformis luciferase; type: cell-based; conditions: GBCR2 with pAGal9-MC1R, 17β-estradiol 10 nmol/L 24 hours; various concentrations, 6 hours
T3 construct: expressed in transfected cells; host or cells: GBCR2 (Namalwa KJM-1 derived)
T3 sequence (Q01726 whole entry): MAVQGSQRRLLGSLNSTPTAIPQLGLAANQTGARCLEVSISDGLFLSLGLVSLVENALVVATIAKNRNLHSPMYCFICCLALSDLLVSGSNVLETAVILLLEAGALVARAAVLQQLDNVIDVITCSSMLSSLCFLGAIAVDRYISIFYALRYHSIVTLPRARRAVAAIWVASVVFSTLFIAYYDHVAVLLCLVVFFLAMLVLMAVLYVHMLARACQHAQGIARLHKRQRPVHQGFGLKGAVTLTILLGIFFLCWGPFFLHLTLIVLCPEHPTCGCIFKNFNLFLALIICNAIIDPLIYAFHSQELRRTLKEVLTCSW
Procedure: One of the plasmids was named pAGal9-MC1R. The nucleotide sequence was determined by the method mentioned in the above (2).
According to the method mentioned in (1) of Example 21, pAGal9-MC1R was transfected to GBCR2 to prepare stable transformants.

other GPCRs = assay: Specificity: assay cells to which other GPCRs were transfected; type: cell-based
G10d = target: T4, G10d (Homo sapiens, UniProt O15218); assay: Screening of ligands or agonists of G10d (pAGal9-G10d in GBCRC6, Renilla luciferase); type: cell-based; conditions: 6 hours
T4 construct: expressed in transfected cells; host or cells: GBCRC6 (Namalwa KJM-1 derived)
T4 sequence (O15218 whole entry): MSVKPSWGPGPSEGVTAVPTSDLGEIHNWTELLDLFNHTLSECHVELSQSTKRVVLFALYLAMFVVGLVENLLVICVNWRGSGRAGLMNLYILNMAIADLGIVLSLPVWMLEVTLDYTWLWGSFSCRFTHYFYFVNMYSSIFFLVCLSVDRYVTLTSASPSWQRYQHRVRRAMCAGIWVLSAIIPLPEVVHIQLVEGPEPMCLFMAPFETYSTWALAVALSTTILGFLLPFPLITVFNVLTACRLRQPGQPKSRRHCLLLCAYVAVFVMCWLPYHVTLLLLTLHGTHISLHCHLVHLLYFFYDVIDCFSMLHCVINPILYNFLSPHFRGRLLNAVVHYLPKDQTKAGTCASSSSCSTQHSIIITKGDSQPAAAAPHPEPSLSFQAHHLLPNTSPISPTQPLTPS
Procedure: According to the method mentioned in (1) of Example 20, the G10d gene was prepared by PCR and the gene was inserted in an expression vector pAGal9-d to construct pAGal9-G10d which is an inducible expression plasmid of G10d. With regard to a template, single-stranded DNAs derived from human spleen were used. With regard to the G10d gene-specific primers, synthetic DNAs having sequences mentioned in SEQ ID NOS: 185 and 186 were used. To the above primers, a HindIII site and a NotI site were introduced, respectively.
A PCR-amplified fragment was cleaved with HindIII and NotI to prepare a HindIII-NotI fragment. A plasmid pAGal9-d was cleaved with HindIII and NotI to prepare a HindIII-NotI fragment.
(§1) According to the method mentioned in (1) of Example 21, pAGal9-G10d was transfected to GBCRC6 to prepare stable transformants. […] It is possible to screen an antagonist for G10d using α-MSH or ACTH as an agonist.

[2] = tested on: GBCRC6 to which control vector (pAGal9-d) was transfected; assay: Control: GBCRC6 to which control vector (pAGal9-d) was transfected; type: cell-based, human
Source text: as §1

Molecule: CC(=O)O [acetate]
induction ratio of the reporter (agonist for GPR43) (GPR43): 9 fold

Constitutive Activity (induction ratio) (CRE reporter in KJMGER8): 6.5-fold
Molecule: GPR 3

Molecule: CNc1ccc2oc(C[C@H]3O[C@@]4(CC[C@H]3C)O[C@H]([C@H](C)C(=O)c3ccc[nH]3)[C@H](C)C[C@H]4C)nc2c1C(=O)O [A23187]
change of firefly luciferase activity (gene expression via CRE; Namalwa KJM-1 with pACREpluc, A23187 10 μmol/L, 5 hours): rarely changed

induction ratio of the reporter (agonist for GPR43) (GPR43): 5 fold | induction ratio of the reporters (agonist for GPR41) (GPR41): 21 fold
Molecule: CCC(=O)O [propionic acid]

rising rate of luciferase activity upon addition of 17β-estradiol (GPR12; GBC5 with pAGal9-GPR12): 56 fold | rising rate of luciferase activity upon addition of 17β-estradiol (GPR12; GBC6 with pAGal9-GPR12): 193 fold | rising rate of luciferase activity upon addition of 17β-estradiol (GPR12; GBC7 with pAGal9-GPR12): 364 fold | rising rate of Renilla reniformis luciferase activity when 17β-estradiol was added (GPR12; GBCR2 with pAGal9-GPR12): 364 fold
Molecule: C[C@]12CC[C@@H]3c4ccc(O)cc4CC[C@H]3[C@@H]1CC[C@@H]2O [17β-estradiol]

concentration at which MC1R reacts (Renilla luciferase reporter) [1]: very low concentration
Molecule: human PAMP-12: peptide consisting of the 9th to 20th amino acid residues from N terminal of PAMP (FRKKWNKWALSR; ends and bridges not checked; UniProt P35318 30-41, looked up, fragment)

Molecule: CC(=O)O [acetic acid]
induction ratio of the reporter (agonist for GPR43) (GPR43): 4 fold | agonist activity to GPR41 (GPR41): did not show an agonist activity | action on assay cells to which other GPCRs were transfected (other GPCRs): did not act

induction ratio of the reporters (agonist for GPR41) (GPR41): 22 fold
Molecule: O=C(O)C1CC1 [cyclopropanecarboxylic acid]
action on assay cells to which other GPCRs were transfected (other GPCRs): did not act

Molecule: CCNC(=O)[C@H]1O[C@@H](n2cnc3c(N)ncnc32)[C@H](O)[C@@H]1O [NECA, 5′-N-ethylcarboxamide adenosine]
increase of Renilla reniformis luciferase activity versus no stimulation (gene expression via CRE; 2 clones GBCR1 and GBCR2 (KJMGER8 with integrated pACRERluc), NECA 100 nmol/L): not less than 18 fold | rise of firefly luciferase activity versus no stimulation (gene expression via CRE; 8 clones GBC1 to GBC8 (KJMGER8 with integrated pACREpluc), NECA stimulation): ≥ 60 fold | increase of firefly luciferase activity (gene expression via CRE; Namalwa KJM-1 with pACREpluc, NECA 100 nmol/L, 5 hours): about 7 fold | firefly luciferase activity after 24 hours (gene expression via CRE; Namalwa KJM-1 with pACREpluc, compared with highest activity at 6 hours): decreased to an extent of nearly one half | time after stimulation at which firefly luciferase activity was highest (gene expression via CRE; Namalwa KJM-1 with pACREpluc, measured after 6, 24, 48, 72 and 96 hours): 6 h

concentration at which MC1R reacts (Renilla luciferase reporter) [1]: very low concentration
Molecule: human PAMP: peptide comprising 20 amino acids excised from a precursor protein of adrenomedullin (ARLDVASEFRKKWNKWALSR; ends and bridges not checked; UniProt P35318 22-41, looked up)

Constitutive Activity (induction ratio) (CRE reporter in KJMGER8): 26-fold
Molecule: GPR 26

Molecule: ACTH: adrenocorticotropic hormone (SYSMEHFRWGKPVGKKRRPVKVYPNGAEDESAEAFPLEF)
induction ratio of the reporters (agonist for G10d) (G10d; 100 nmol/L of ACTH): 11 fold | action on GBCRC6 to which control vector (pAGal9-d) was transfected [2]: did not act

Molecule: C=C[C@@]1(C)CC(=O)[C@]2(O)[C@@]3(C)[C@@H](O)CCC(C)(C)[C@@H]3[C@H](O)[C@H](OC(C)=O)[C@@]2(C)O1 [forskolin]
increase of firefly luciferase activity (gene expression via CRE; Namalwa KJM-1 with pACREpluc, forskolin 100 μmol/L, 5 hours): about 10 fold

Molecule: α-MSH: α-melanocyte-stimulating hormone
induction ratio of the reporters (agonist for G10d) (G10d; 100 μmol/L of α-MSH): 10 fold | action on GBCRC6 to which control vector (pAGal9-d) was transfected [2]: did not act
